A word on the MIC: it is the lowest concentration found to suppress growth.

The values below come from ChEMBL document CHEMBL5120880, “Peptidomimetics: An Overview of Recent Medicinal Chemistry Efforts toward the Discovery of Novel Small Molecule Inhibitors” (J Med Chem, 2022).

Common to all, as to format: functional
The test system of assay [1] is Escherichia coli. The assay is described as follows: Antimicrobial activity against Escherichia coli KCTC 1682 assessed as minimal inhibitory concentration incubated for 18 hrs.
In a further assay the test system is Pseudomonas aeruginosa. Nature of the assay: Antimicrobial activity against Pseudomonas aeruginosa KCTC 1637 assessed as minimal inhibitory concentration incubated for 18 hrs.
The subject of assay [2] is Staphylococcus aureus. Nature of the assay: Antimicrobial activity against Staphylococcus aureus KCTC 1621 assessed as minimal inhibitory concentration incubated for 18 hrs.
For assay [3], the system named is Staphylococcus epidermidis. Nature of the assay: Antimicrobial activity against Staphylococcus epidermidis KCTC 1917 assessed as minimal inhibitory concentration incubated for 18 hrs.
Assay [4] relates to Escherichia coli. The assay is described as follows: Antibacterial activity against Escherichia coli assessed as minimal inhibitory concentration incubated for 24 hrs.
Another assay concerns Salmonella enterica. The assay is described as follows: Antibacterial activity against Salmonella enterica assessed as minimal inhibitory concentration incubated for 24 hrs.
In assay [5] the test system is Staphylococcus aureus. The assay is described as follows: Antibacterial activity against Staphylococcus aureus assessed as minimal inhibitory concentration incubated for 24 hrs.
For a further assay, the system named is Bacillus subtilis. The assay is described as follows: Antibacterial activity against Bacillus subtilis assessed as minimal inhibitory concentration incubated for 72 hrs.
The subject of assay [6] is Staphylococcus aureus. The assay is described as follows: Antibacterial activity against Staphylococcus aureus MRSA assessed as minimal inhibitory concentration incubated for 24 hrs.

Converted amounts (≈) assume the structure as drawn.

As to `CC(=O)NCCNc1nc(NCC(=O)NCCNc2nc(NCC(N)=O)nc(N(Cc3ccccc3)Cc3ccccc3)n2)nc(N(CCCN)CCCN)n1`, the MIC is 64 µg/mL (≈ 82.9 µM) in the assay with Escherichia coli [1], 32 µg/mL (≈ 41.5 µM) in the assay on Pseudomonas aeruginosa, 32 µg/mL (≈ 41.5 µM) in the assay with Staphylococcus aureus [2] and 32 µg/mL (≈ 41.5 µM) in assay [3].

For `CCCCCCCCCCCCCCCCNC(=O)[C@@H](N)Cc1ccccc1`, the MIC in the assay with Escherichia coli [4] was 1250 µg/mL (≈ 3220 µM); with Salmonella enterica it was 625 µg/mL (≈ 1610 µM); with Staphylococcus aureus [5], 1250 µg/mL (≈ 3220 µM); in the assay on Bacillus subtilis it was 625 µg/mL (≈ 1610 µM); in the assay with Staphylococcus aureus [6], 1250 µg/mL (≈ 3220 µM).

On to `CCCCCCCCCCCCNC(=O)[C@@H](N)C(C)CC` (some centres undefined), for which the MIC came to 2 µg/mL (≈ 6.7 µM) in the assay with Escherichia coli [4]; 5 µg/mL (≈ 16.7 µM) with Salmonella enterica; 2.5 µg/mL (≈ 8.37 µM) in the assay with Staphylococcus aureus [5]; 510 µg/mL (≈ 1710 µM) in the assay on Bacillus subtilis; 4 µg/mL (≈ 13.4 µM) in the assay with Staphylococcus aureus [6].

`CCCCCCCCCCCCNC(=O)[C@H](N)Cc1ccccc1`: the minimal inhibitory concentration (MIC) worked out at 5 µg/mL (≈ 15 µM) in the assay with Escherichia coli [4]; 10 µg/mL (≈ 30.1 µM) in the assay on Salmonella enterica; 5 µg/mL (≈ 15 µM) with Staphylococcus aureus [5]; 8.3 µg/mL (≈ 25 µM) in the assay on Bacillus subtilis; 20 µg/mL (≈ 60.1 µM) in the assay on Staphylococcus aureus [6].

Turning to `CCCCCCCCNC(=O)[C@@H](N)Cc1ccccc1`, the MIC with Escherichia coli [4] stood at 39 µg/mL (≈ 141 µM); with Salmonella enterica it was 62.5 µg/mL (≈ 226 µM); in the assay with Staphylococcus aureus [5] it was 39 µg/mL (≈ 141 µM); with Bacillus subtilis, 78 µg/mL (≈ 282 µM); in the assay on Staphylococcus aureus [6], 52 µg/mL (≈ 188 µM).

For `CC(=O)NCCNc1nc(NCC(=O)NCCNc2nc(NCC(=O)NCCNc3nc(NCC(N)=O)nc(N(CCCN)CCCN)n3)nc(N(Cc3ccccc3)Cc3ccccc3)n2)nc(N(CCCN)CCCN)n1`, the MIC (with Escherichia coli [1]; with Pseudomonas aeruginosa; with Staphylococcus aureus [2]; in assay [3]) was 16 µg/mL (≈ 14.6 µM) throughout.

As to `CCCCCCCCCCNC(=O)[C@@H](N)Cc1ccccc1`, the MIC with Escherichia coli [4] was found to be 10 µg/mL (≈ 32.8 µM); in the assay on Salmonella enterica it was 15.6 µg/mL (≈ 51.2 µM); in the assay with Staphylococcus aureus [5] it was 13.3 µg/mL (≈ 43.7 µM); in the assay on Bacillus subtilis, 39 µg/mL (≈ 128 µM); in the assay on Staphylococcus aureus [6] it was 20 µg/mL (≈ 65.7 µM).

Consider `CCCCCCCCCCCCNC(=O)[C@@H](N)C(C)C`, for which the MIC in the assay with Escherichia coli [4] is 1.67 µg/mL (≈ 5.87 µM); in the assay with Salmonella enterica it was 6.5 µg/mL (≈ 22.8 µM); in the assay on Staphylococcus aureus [5] it was 3.3 µg/mL (≈ 11.6 µM); with Bacillus subtilis it was 4.2 µg/mL (≈ 14.8 µM); with Staphylococcus aureus [6] it was 8.3 µg/mL (≈ 29.2 µM).

For the compound `CC(=O)NCCNc1nc(NCC(N)=O)nc(N(CCCN)CCCN)n1`, the minimum inhibitory concentration (MIC) was 128 µg/mL (≈ 335 µM) with Escherichia coli [1], 128 µg/mL (≈ 335 µM) in the assay on Pseudomonas aeruginosa, greater than 128 µg/mL in the assay on Staphylococcus aureus [2] and greater than 128 µg/mL in assay [3].

Take `C#Cc1cccc(NC(=O)[C@@H](N)CC(C)C)c1`: the MIC in the assay on Escherichia coli [4] came to 10.6 µg/mL (≈ 46 µM); in the assay with Salmonella enterica, 15.6 µg/mL (≈ 67.7 µM); with Staphylococcus aureus [5], 10.6 µg/mL (≈ 46 µM); in the assay with Bacillus subtilis it was 31.2 µg/mL (≈ 135 µM); in the assay with Staphylococcus aureus [6] it was 31.2 µg/mL (≈ 135 µM).

Turning to `CC(=O)NCCNc1nc(NCC(N)=O)nc(N(Cc2ccccc2)Cc2ccccc2)n1`, the MIC (in the assay on Escherichia coli [1]; with Pseudomonas aeruginosa; with Staphylococcus aureus [2]; in assay [3]) was greater than 128 µg/mL throughout.

In the case of `CCCCCCCCCCCCNC(=O)[C@@H](N)c1ccccc1`, the MIC amounted to 2.5 µg/mL (≈ 7.85 µM) in the assay on Escherichia coli [4]; 3.9 µg/mL (≈ 12.2 µM) with Salmonella enterica; 7.8 µg/mL (≈ 24.5 µM) with Staphylococcus aureus [5]; 15.6 µg/mL (≈ 49 µM) in the assay with Bacillus subtilis; 15.6 µg/mL (≈ 49 µM) with Staphylococcus aureus [6].

Regarding `CCCCCCCCCCCCNC(=O)[C@@H](N)CC(C)C`, the minimal inhibitory concentration (MIC) in the assay on Escherichia coli [4] stood at 2.5 µg/mL (≈ 8.37 µM); in the assay on Salmonella enterica, 4.17 µg/mL (≈ 14 µM); in the assay on Staphylococcus aureus [5], 3.3 µg/mL (≈ 11.1 µM); in the assay with Bacillus subtilis it was 10 µg/mL (≈ 33.5 µM); in the assay with Staphylococcus aureus [6] it was 6.25 µg/mL (≈ 20.9 µM).

With `CCCCCCNC(=O)[C@@H](N)Cc1ccccc1`, the MIC in the assay on Escherichia coli [4] amounted to 156 µg/mL (≈ 628 µM); in the assay on Salmonella enterica, 156 µg/mL (≈ 628 µM); with Staphylococcus aureus [5], 624 µg/mL (≈ 2510 µM); in the assay on Bacillus subtilis it was 156 µg/mL (≈ 628 µM); in the assay with Staphylococcus aureus [6], 312 µg/mL (≈ 1260 µM).

Take `CCCCCCCCCCCCNC(=O)[C@@H](N)Cc1ccccc1`: the MIC worked out at 5 µg/mL (≈ 15 µM) in the assay with Escherichia coli [4]; 5 µg/mL (≈ 15 µM) in the assay with Salmonella enterica; 2.5 µg/mL (≈ 7.52 µM) with Staphylococcus aureus [5]; 10 µg/mL (≈ 30.1 µM) with Bacillus subtilis; 16.6 µg/mL (≈ 49.9 µM) in the assay on Staphylococcus aureus [6].

Consider `C#Cc1cccc(NC(=O)[C@@H](N)C(C)CC)c1` (some centres undefined), for which the MIC with Escherichia coli [4] worked out at 15.6 µg/mL (≈ 67.7 µM); with Salmonella enterica it was 15.6 µg/mL (≈ 67.7 µM); in the assay with Staphylococcus aureus [5] it was 31.2 µg/mL (≈ 135 µM); with Staphylococcus aureus [6] it was 62.4 µg/mL (≈ 271 µM).

With `CCCCNC(=O)[C@@H](N)Cc1ccccc1`, the MIC with Salmonella enterica came out at 416 µg/mL (≈ 1890 µM); in the assay with Staphylococcus aureus [5], 1250 µg/mL (≈ 5670 µM); with Bacillus subtilis, 416 µg/mL (≈ 1890 µM); in the assay with Staphylococcus aureus [6], 624 µg/mL (≈ 2830 µM).
